The results in this text go back to publication PMC8326117 (International Journal of Biological Sciences, 2021).

In one series the target is ACE2 (Homo sapiens, UniProt Q9BYF1). Briefly: LSPR assay, binding to ACE2.
The conditions of series [1]: mouse, in vivo.

As a reminder, the Kd is the equilibrium constant for the complex coming apart. High values mean a looser complex, low ones a tighter complex. As usually defined, the koff is a measure of how fast the partners let go of each other. Lower therefore signals a long-lived complex. For orientation: kon means a measure of how fast the partners come together.

Sequence of ACE2 (Q9BYF1 18-805): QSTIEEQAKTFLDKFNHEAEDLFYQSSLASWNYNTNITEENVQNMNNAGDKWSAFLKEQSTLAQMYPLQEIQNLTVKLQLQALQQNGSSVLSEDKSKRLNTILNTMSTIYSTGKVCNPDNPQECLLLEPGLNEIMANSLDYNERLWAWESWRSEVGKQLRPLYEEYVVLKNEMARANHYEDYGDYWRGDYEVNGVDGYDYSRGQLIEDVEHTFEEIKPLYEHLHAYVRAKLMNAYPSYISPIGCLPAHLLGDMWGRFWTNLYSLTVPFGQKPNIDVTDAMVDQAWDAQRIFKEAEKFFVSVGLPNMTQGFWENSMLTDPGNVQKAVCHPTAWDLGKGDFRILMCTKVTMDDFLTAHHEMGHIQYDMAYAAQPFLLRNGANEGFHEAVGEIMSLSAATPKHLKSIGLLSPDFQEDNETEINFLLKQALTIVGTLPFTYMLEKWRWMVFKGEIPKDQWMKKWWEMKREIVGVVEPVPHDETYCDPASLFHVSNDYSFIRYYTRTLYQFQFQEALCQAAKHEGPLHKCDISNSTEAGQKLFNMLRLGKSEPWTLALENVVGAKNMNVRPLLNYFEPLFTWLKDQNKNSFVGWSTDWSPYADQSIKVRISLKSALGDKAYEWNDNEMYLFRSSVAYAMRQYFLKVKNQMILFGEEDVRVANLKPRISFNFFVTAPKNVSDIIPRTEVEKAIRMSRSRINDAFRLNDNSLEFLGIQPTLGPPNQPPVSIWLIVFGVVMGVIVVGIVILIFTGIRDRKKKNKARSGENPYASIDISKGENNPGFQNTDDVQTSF

At ACE2, `CC(C)C[C@H](NC(=O)[C@@H]1CCCN1C(=O)[C@H](Cc1ccccc1)NC(=O)[C@H](Cc1ccc(O)cc1)NC(=O)[C@H](CS)NC(=O)[C@H](CC(N)=O)NC(=O)[C@H](Cc1ccccc1)NC(=O)CNC(=O)[C@H](CCC(=O)O)NC(=O)[C@@H](NC(=O)[C@H](CCCCN)NC(=O)[C@H](CCCCN)NC(=O)[C@H](CCCCN)NC(=O)[C@H](CCCCN)NC(=O)[C@H](CCCCN)NC(=O)[C@@H](N)CCCCN)C(C)C)C(=O)N[C@@H](CCC(N)=O)C(=O)N[C@@H](CO)C(=O)O` [AYp28] registered a Kd of 47.6 nM. Besides, at ACE2 (pH 7.4), the off-rate constant (koff) amounted to 0.000205 s⁻¹ and the kon is 4310 M⁻¹ s⁻¹. Also, in series [1], the “distribution in livers and kidneys” value is “not in the kidneys and livers”; the “distribution in lungs and small intestine” value was “preferentially distributed in the lungs and intestine”. In addition, the cytotoxicity entry in the series on HEK293T/hACE2 cells was “no significant cytotoxicity”.
